The conditions of data set [1]: per 100 ml of a 10% fat emulsion.
Procedure: (§1) The solubilization efficacy was determined by filtering the drug loaded fat emulsion through a 0.2 micron Nuclepore filter. Drug compound which is not solubilized was held back by the filter and determined gravimetrically and/or by HPLC measurements.
The nature of data set [2]: Solubilization of active agent in fat emulsions: filtration through 0.2 micron Nuclepore filter, retained drug determined gravimetrically and/or by HPLC.
Procedure: as §1
Further sodium oleate was used, instead of POPG.Na.
Propylene glycol was then used to replace a part of the ethanol content.

On to `C/C=C/C[C@@H](C)C(=O)[C@H]1C(=O)N[C@@H](C(C)C)C(=O)N(C)CC(=O)N(C)[C@@H](CC(C)C)C(=O)N[C@@H](C(C)C)C(=O)N(C)[C@@H](CC(C)C)C(=O)N[C@@H](C)C(=O)N[C@H](C)C(=O)N(C)[C@@H](CC(C)C)C(=O)N(C)[C@@H](CC(C)C)C(=O)N(C)[C@@H](C(C)C)C(=O)N1C` [PSC 833, [3′-desoxy-3′-oxo-MeBmt]^1-[Val]^2-Ciclosporin], for which, in data set [1], the “PSC 833 solubilized by 100 ml of a 10% fat emulsion” value is “up to 2 gram”. Also, the “PSC 833 solubilized” value in data set [2] (plain PSC 833 solution in ethanol injected into a fat emulsion, after 30 minutes, no stabiliser) came to 87%. Moreover, the “PSC 833 retained on the filter” value in data set [2] (with POPG.Na or sodium oleate, after 5 minutes, determined by HPLC) was “less than 0.1%”.

The values are drawn from patent publication USRE42014E1, “Pharmaceutical compositions” (Novartis AG, priority 1996, dated 2010).
